From patent US10040781B2, “Tank-binding kinase inhibitor compounds” (Gilead Sciences, Inc., priority 2014, dated 2018)
Counter-ions that a name gives are not always drawn.

Columns and labels:
[1] = biological target: IKKε (Homo sapiens (Human), UniProt Q14164); assay: IKKε TR-FRET enzymatic assay; assay type: biochemical; details: TR-FRET, 2×Km ATP; geometric mean of minimum four determinations; read-out: IKKe IC50
[2] = biological target: hJAK2 (Homo sapiens (Human), UniProt O60674); assay: hJAK2 LANCE TR-FRET enzymatic assay; assay type: biochemical; details: read-out: JAK2 IC50
[3] = biological target: TBK1 (Homo sapiens (Human), UniProt Q9UHD2); assay: TBK1 TR-FRET enzymatic assay;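 note: phosphorylation of a biotinylated Ser/Thr peptide by purified full-length recombinant TBK1, read by TR-FRET after 240 min at 25 °C, IC50 is the geometric mean of at least four runs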
TBK1, sequence (Q9UHD2 whole entry): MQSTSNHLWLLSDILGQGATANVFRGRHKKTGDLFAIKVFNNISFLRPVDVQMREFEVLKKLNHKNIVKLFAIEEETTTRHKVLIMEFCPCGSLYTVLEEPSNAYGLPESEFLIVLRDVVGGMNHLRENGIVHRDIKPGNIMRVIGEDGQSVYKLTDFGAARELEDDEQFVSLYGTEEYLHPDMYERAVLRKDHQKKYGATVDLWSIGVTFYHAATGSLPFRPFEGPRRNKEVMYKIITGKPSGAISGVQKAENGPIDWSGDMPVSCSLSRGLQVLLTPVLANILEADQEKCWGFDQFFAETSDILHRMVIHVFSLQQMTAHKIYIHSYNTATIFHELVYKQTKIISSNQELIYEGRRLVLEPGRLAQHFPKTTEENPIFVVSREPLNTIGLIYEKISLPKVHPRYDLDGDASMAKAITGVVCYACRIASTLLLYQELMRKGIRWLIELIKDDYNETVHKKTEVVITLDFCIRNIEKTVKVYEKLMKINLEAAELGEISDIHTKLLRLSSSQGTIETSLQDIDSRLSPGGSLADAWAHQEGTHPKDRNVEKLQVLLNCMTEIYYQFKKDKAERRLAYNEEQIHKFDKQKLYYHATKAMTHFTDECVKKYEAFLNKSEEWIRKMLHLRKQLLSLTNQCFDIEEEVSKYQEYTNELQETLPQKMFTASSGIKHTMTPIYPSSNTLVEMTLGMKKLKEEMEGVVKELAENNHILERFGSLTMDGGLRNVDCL

IKKε, sequence (Q14164 whole entry): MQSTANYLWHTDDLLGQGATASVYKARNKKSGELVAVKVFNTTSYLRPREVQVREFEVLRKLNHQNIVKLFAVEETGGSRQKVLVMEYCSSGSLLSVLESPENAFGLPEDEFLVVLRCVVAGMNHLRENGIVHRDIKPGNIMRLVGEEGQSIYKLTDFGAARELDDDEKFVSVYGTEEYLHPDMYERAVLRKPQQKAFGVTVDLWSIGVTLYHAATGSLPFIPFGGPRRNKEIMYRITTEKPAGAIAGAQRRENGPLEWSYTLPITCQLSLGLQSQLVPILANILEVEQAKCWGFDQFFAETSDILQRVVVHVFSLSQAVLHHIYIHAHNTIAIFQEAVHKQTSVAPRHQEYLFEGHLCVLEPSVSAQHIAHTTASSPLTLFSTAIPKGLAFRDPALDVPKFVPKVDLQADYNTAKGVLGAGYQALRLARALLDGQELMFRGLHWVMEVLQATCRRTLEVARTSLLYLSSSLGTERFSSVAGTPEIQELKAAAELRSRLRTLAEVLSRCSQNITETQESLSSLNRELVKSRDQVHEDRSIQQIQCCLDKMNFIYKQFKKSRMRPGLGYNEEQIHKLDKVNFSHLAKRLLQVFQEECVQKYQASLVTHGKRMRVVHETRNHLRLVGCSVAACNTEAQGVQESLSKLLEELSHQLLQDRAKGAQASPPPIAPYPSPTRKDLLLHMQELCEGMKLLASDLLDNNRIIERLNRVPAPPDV
hJAK2, sequence (O60674 whole entry): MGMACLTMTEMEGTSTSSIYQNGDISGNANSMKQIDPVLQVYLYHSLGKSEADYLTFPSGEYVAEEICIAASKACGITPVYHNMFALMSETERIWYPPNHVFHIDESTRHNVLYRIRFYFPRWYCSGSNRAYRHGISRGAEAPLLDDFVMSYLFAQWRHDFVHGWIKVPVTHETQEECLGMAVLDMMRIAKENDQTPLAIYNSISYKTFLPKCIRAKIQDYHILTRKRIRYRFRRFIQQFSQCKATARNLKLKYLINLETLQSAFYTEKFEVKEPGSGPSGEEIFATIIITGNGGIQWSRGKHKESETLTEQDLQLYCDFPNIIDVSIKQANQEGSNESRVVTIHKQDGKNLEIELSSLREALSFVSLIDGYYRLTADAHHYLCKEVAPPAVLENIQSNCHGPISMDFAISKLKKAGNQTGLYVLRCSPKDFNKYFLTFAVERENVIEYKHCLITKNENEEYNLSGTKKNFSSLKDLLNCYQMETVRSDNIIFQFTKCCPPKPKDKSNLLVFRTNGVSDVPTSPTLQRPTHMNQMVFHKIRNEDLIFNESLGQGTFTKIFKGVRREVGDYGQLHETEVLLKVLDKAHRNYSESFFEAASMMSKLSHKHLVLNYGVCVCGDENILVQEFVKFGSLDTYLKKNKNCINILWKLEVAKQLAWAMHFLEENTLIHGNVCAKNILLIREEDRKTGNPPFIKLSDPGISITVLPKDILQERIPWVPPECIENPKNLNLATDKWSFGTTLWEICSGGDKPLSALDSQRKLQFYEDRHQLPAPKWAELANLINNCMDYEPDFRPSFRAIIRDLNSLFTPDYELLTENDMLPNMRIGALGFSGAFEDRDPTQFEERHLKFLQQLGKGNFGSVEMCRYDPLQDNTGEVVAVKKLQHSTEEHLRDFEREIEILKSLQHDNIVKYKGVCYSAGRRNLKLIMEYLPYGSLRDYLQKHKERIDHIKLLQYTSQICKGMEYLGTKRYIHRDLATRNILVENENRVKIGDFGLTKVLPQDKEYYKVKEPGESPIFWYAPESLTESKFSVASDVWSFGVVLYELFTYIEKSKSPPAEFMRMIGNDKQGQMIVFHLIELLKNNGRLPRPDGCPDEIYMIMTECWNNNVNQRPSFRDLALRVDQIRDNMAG

IC50 [1] [nM]	IC50 [2] [nM]	IC50 [3] [nM]	SMILES
10	≥ 1000	6	COc1cc(Nc2ncnc(-c3ccc(O[C@H]4CCN(C(=O)[C@H](C)O)C[C@H]4F)c(C#N)c3)n2)ccn1 [Example 474]
5	767	3	C[C@H](O)C(=O)N1CC[C@H](Oc2ccc(-c3ncnc(Nc4cccc(C(C)(C)O)c4)n3)cc2C#N)[C@H](F)C1 [Example 486, 2-(((3R,4S)-3-fluoro-1-((S)-2-hydroxypropanoyl)piperidin-4-yl)oxy)-5-(4-((3-(2-hydroxypropan-2-yl)phenyl)amino)-1,3,5-triazin-2-yl)benzonitrile]
1	324	3	Cc1cc(Nc2ncnc(-c3ccc(O[C@H]4CCN(C(=O)[C@H](C)O)C[C@H]4F)c(C#N)c3)n2)ccc1C1CCN(C)CC1 [Example 487, 2-(((3R,4S)-3-fluoro-1-((S)-2-hydroxypropanoyl)piperidin-4-yl)oxy)-5-(4-((3-methyl-4-(1-methylpiperidin-4-yl)phenyl)amino)-1,3,5-triazin-2-yl)benzonitrile]
1	131	4	Cc1cc(Nc2ncnc(-c3ccc(O[C@H]4CCN(C(=O)CC#N)C[C@H]4F)c(C#N)c3)n2)ccc1C1CCN(C)CC1 [Example 488, 2-(((3R,4S)-1-(2-cyanoacetyl)-3-fluoropiperidin-4-yl)oxy)-5-(4-((3-methyl-4-(1-methylpiperidin-4-yl)phenyl)amino)-1,3,5-triazin-2-yl)benzonitrile]
1	183	4	COCC(=O)N1CC[C@H](Oc2ccc(-c3ncnc(Nc4ccc(C5CCN(C)CC5)c(C)c4)n3)cc2C#N)[C@H](F)C1 [Example 489, 2-(((3R,4S)-3-fluoro-1-(2-methoxyacetyl)piperidin-4-yl)oxy)-5-(4-((3-methyl-4-(1-methylpiperidin-4-yl)phenyl)amino)-1,3,5-triazin-2-yl)benzonitrile]
1	482	2	COCC(=O)N1CC[C@H](Oc2ccc(-c3ncnc(Nc4ccc(C5CCN(C=O)CC5)c(C)c4)n3)cc2C#N)[C@H](F)C1 [Example 492, 2-(((3R,4S)-3-fluoro-1-(2-methoxyacetyl)piperidin-4-yl)oxy)-5-(4-((4-(1-formylpiperidin-4-yl)-3-methylphenyl)amino)-1,3,5-triazin-2-yl)benzonitrile]

More lines, now with the values behind:

SMILES	IC50 [1] [nM]	IC50 [2] [nM]	IC50 [3] [nM]
N#Cc1cc(-c2ncnc(Nc3ccc(N4CCN(C5COC5)CC4)cc3)n2)ccc1O[C@H]1CCN(C(=O)[C@@H]2COCCN2)C[C@H]1F [Example 475, 2-(((3R,4S)-3-fluoro-1-((S)-morpholine-3-carbonyl)piperidin-4-yl)oxy)-5-(4-((4-(4-(oxetan-3-yl)piperazin-1-yl)phenyl)amino)-1,3,5-triazin-2-yl)benzonitrile]	50	≥ 1000	23
C[C@H](O)C(=O)N1CC[C@H](Oc2ccc(-c3ncnc(Nc4ccc(-c5ccn(C)c(=O)c5)cc4)n3)cc2C#N)[C@H](F)C1 [Example 476, 2-(((3R,4S)-3-fluoro-1-((S)-2-hydroxypropanoyl)piperidin-4-yl)oxy)-5-(4-((4-(1-methyl-2-oxo-1,2-dihydropyridin-4-yl)phenyl)amino)-1,3,5-triazin-2-yl)benzonitrile]	3	≥ 1000	3
N#Cc1cc(-c2ncnc(Nc3ccc(N4CCN(C5COC5)CC4)cc3)n2)ccc1O[C@H]1CCN(C(=O)c2cocn2)C[C@H]1F [Example 477, 2-(((3R,4S)-3-fluoro-1-(oxazole-4-carbonyl)piperidin-4-yl)oxy)-5-(4-((4-(4-(oxetan-3-yl)piperazin-1-yl)phenyl)amino)-1,3,5-triazin-2-yl)benzonitrile]	2	526	3
N#Cc1cc(-c2ncnc(Nc3ccc(N4CCN(C5COC5)CC4)cc3)n2)ccc1O[C@H]1CCN(C(=O)NO)C[C@H]1F [Example 478, (3R,4S)-4-(2-cyano-4-(4-((4-(4-(oxetan-3-yl)piperazin-1-yl)phenyl)amino)-1,3,5-triazin-2-yl)phenoxy)-3-fluoro-N-hydroxypiperidine-1-carboxamide]	1	135	3
COc1cc(Nc2ncnc(-c3ccc(O[C@H]4CCN(C(=O)[C@@H](O)CO)CC4(F)F)c(C#N)c3)n2)ccn1 [Example 479, 2-(((S)-1-((S)-2,3-dihydroxypropanoyl)-3,3-difluoropiperidin-4-yl)oxy)-5-(4-((2-methoxypyridin-4-yl)amino)-1,3,5-triazin-2-yl)benzonitrile]	1	≥ 1000	2
N#Cc1cc(-c2ncnc(Nc3ccc(N4CCN(C5COC5)CC4)cc3)n2)ccc1O[C@H]1CCN(c2ccccn2)C[C@H]1F [Example 480, 2-(((3R,4S)-3-fluoro-1-(pyridin-2-yl)piperidin-4-yl)oxy)-5-(4-((4-(4-(oxetan-3-yl)piperazin-1-yl)phenyl)amino)-1,3,5-triazin-2-yl)benzonitrile]	180	≥ 1000	47
CS(=N)(=O)c1ccc(Nc2ncnc(-c3ccc(O[C@H]4CCN(C=O)CC4(F)F)c(C#N)c3)n2)cc1 (stereo partly drawn) [Example 482, 2-(((S)-3,3-difluoro-1-formylpiperidin-4-yl)oxy)-5-(4-((4-(S-methylsulfonimidoyl)phenyl)amino)-1,3,5-triazin-2-yl)benzonitrile]	7	221	5
COc1cc(Nc2ncnc(-c3ccc(O[C@H]4CCN(C(=O)[C@H](C)O)C[C@H]4F)c(C#N)c3)n2)ccc1S(C)(=O)=O [Example 483, 2-(((3R,4S)-3-fluoro-1-((S)-2-hydroxypropanoyl)piperidin-4-yl)oxy)-5-(4-((3-methoxy-4-(methylsulfonyl)phenyl)amino)-1,3,5-triazin-2-yl)benzonitrile]	6	≥ 1000	8
CS(=O)(=O)c1ccc(-c2ncnc(Nc3ccc(N4CCN(C5COC5)CC4)cc3)n2)cc1 [Example 484, 4-(4-(methylsulfonyl)phenyl)-N-(4-(4-(oxetan-3-yl)piperazin-1-yl)phenyl)-1,3,5-triazin-2-amine, trifluoroacetic acid salt]	≥ 1000	837	1000
Cc1cc(Nc2ncnc(-c3ccc(O[C@H]4CCN(C(=O)c5cn(C)nn5)C[C@H]4F)c(C#N)c3)n2)ccc1C1CCN(C)CC1 [Example 485, 2-(((3R,4S)-3-fluoro-1-(1-methyl-1H-1,2,3-triazole-4-carbonyl)piperidin-4-yl)oxy)-5-(4-((3-methyl-4-(1-methylpiperidin-4-yl)phenyl)amino)-1,3,5-triazin-2-yl)benzonitrile]	1	576	3
N#Cc1cc(-c2ncnc(Nc3ccc(N4CCN(C5COC5)CC4)cc3)n2)ccc1OCC1(C#N)COC1 [Example 491, 3-((2-cyano-4-(4-((4-(4-(oxetan-3-yl)piperazin-1-yl)phenyl)amino)-1,3,5-triazin-2-yl)phenoxy)methyl)oxetane-3-carbonitrile]	33	216	25
